Some test systems named below: CCRF-CEM leukemia; HCT-116 colon; HCT-15 colon; K-562 leukemia; KM12 colon; NCI-H23 lung; RPMI-8226 leukemia; SF-268 CNS; SF-539 CNS; SNB-19 CNS; TK-10 renal; DU-145 prostate; IGROV1 ovarian; PC-3 prostate; RXF 393 renal; SF-295 CNS; SK-OV-3 ovarian; MDA-MB-231 breast.
What all share (assay): NCI tumour cell line growth inhibition, 48 h

Values joined by “and” are separate entries in the source; they are usually repeats but may differ in a detail not shown here. Equal entries are not always repeated.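 Five concentrations, 48 hours, 96-well plates. GI50: concentration for 50% inhibition of growth. Definition used: TGI = concentration required for complete inhibition of growth.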

`CC(C)OP(=O)(OC(C)C)/C(Cl)=N/Nc1ccc([N+](=O)[O-])cc1`: the TGI in the assay on CCRF-CEM leukemia, in the assay on HCT-116 colon, with HCT-15 colon, in the assay on K-562 leukemia, in the assay on KM12 colon and in the assay on NCI-H23 lung was > 100 µM in each case. Further, the TGI in the assay on RPMI-8226 leukemia, with SF-268 CNS, with SF-539 CNS, with SNB-19 CNS and in the assay with TK-10 renal was > 100 µM throughout.

In the case of `CC[C@H](C)[C@H]1NC(=O)[C@@H](NC(=O)[C@@H](CC(C)C)N(C)C(=O)C2CCCN2C(=O)[C@H](C)O)[C@@H](C)OC(=O)[C@H](Cc2ccc(OC)cc2)N(C)C(=O)[C@@H]2CCCN2C(=O)[C@H](CCCCNC(=O)OCc2ccccc2)NC(=O)[C@H](C)C(=O)[C@H](C(C)C)OC(=O)C[C@@H]1O` (stereo partly drawn), the TGI in the assay with CCRF-CEM leukemia was > 25 µM; with DU-145 prostate it was > 25 µM; with HCT-116 colon, 20.2 µM; in the assay with HCT-15 colon it was > 25 µM; in the assay with IGROV1 ovarian, > 25 µM; in the assay with K-562 leukemia, > 25 µM. Further, the TGI in the assay on KM12 colon was 19.4 µM; in the assay with NCI-H23 lung, > 25 µM; in the assay on PC-3 prostate it was 16.5 µM; in the assay with RPMI-8226 leukemia, 19.7 µM; in the assay on RXF 393 renal, > 25 µM; in the assay on SF-268 CNS, > 25 µM. Besides, the TGI in the assay with SF-295 CNS, in the assay with SF-539 CNS, with SK-OV-3 ovarian, in the assay with SNB-19 CNS and in the assay on TK-10 renal was > 25 µM in each case.

Take `O=[N+]([O-])c1cccc2nc3ccccc3c(NCCCn3ccnc3[N+](=O)[O-])c12`: the values for the GI50 in the assay with CCRF-CEM leukemia and in the assay on IGROV1 ovarian were 0.0218 µM and 0.0419 µM, respectively. Also, the TGI in the assay on HCT-116 colon is 0.00198 µM and 0.0188 µM; in the assay with IGROV1 ovarian it was 0.212 µM and 0.412 µM; in the assay with MDA-MB-231 breast it was 0.0119 µM; with NCI-H23 lung, 0.023 µM; with PC-3 prostate, 0.0236 µM; in the assay on RPMI-8226 leukemia it was 0.000419 µM. For the same compound, the TGI in the assay with RXF 393 renal is 0.000768 µM; with SF-295 CNS, 0.214 µM and 0.0415 µM; in the assay on SF-539 CNS it was 0.0218 µM and 0.055 µM; in the assay with SK-OV-3 ovarian, 0.111 µM; in the assay on SNB-19 CNS, 0.0153 µM; in the assay on TK-10 renal it was 0.0489 µM and 0.0392 µM.

Regarding `CC(C)(O)/C=C\P(=O)(O)O`, the TGI in the assay on DU-145 prostate, with HCT-116 colon, in the assay on HCT-15 colon, in the assay with IGROV1 ovarian, in the assay with K-562 leukemia and with KM12 colon was > 100 µM each time. The TGI in the assay with NCI-H23 lung, with PC-3 prostate, with RXF 393 renal, in the assay on SF-268 CNS, with SF-295 CNS and in the assay with SF-539 CNS was > 100 µM in each case. Moreover, the TGI with SK-OV-3 ovarian, in the assay on SNB-19 CNS and in the assay with TK-10 renal was > 100 µM each time.

With `COc1c(CC=C(C)C)c(O)c(C(CC(C)C)c2c(O)c3c(c(C(C)=O)c2O)OC(C(C)(C)O)C3)c(O)c1C(C)=O` (stereo not drawn), the TGI in the assay with CCRF-CEM leukemia is 9.74 µM; in the assay with DU-145 prostate, > 12.5 µM; with HCT-116 colon, > 12.5 µM; in the assay on HCT-15 colon, > 12.5 µM; in the assay with IGROV1 ovarian, > 12.5 µM; with K-562 leukemia, 9.11 µM. Moreover, the TGI was > 12.5 µM in the assay on KM12 colon; 8.9 µM in the assay with NCI-H23 lung; 10 µM with PC-3 prostate; 3.19 µM with RPMI-8226 leukemia; 10.9 µM in the assay on RXF 393 renal; > 12.5 µM in the assay with SF-268 CNS. The TGI in the assay on SF-295 CNS, in the assay with SF-539 CNS, in the assay with SK-OV-3 ovarian and in the assay with SNB-19 CNS was > 12.5 µM in each case.

For the compound `N#CC(C(=O)c1cccnc1Cl)c1nc2cc(C(F)(F)F)ccc2s1` (stereo not drawn), the TGI with DU-145 prostate is > 100 µM; in the assay on HCT-116 colon it was 90.3 µM; in the assay on HCT-15 colon, > 100 µM; with IGROV1 ovarian, > 100 µM; in the assay on K-562 leukemia it was > 100 µM; in the assay on KM12 colon it was > 100 µM. For the same compound, the TGI with MDA-MB-231 breast, in the assay with NCI-H23 lung, in the assay with RPMI-8226 leukemia, in the assay with RXF 393 renal, in the assay on SF-268 CNS and in the assay on SF-295 CNS was > 100 µM throughout. Further, the TGI with SF-539 CNS, with SK-OV-3 ovarian, in the assay on SNB-19 CNS and in the assay with TK-10 renal was > 100 µM in each case.

As to `COC(=O)CC(NC(=O)OCc1ccccc1)C(C(C)=O)C(=O)OCc1ccccc1` (stereo not drawn), the TGI with CCRF-CEM leukemia, in the assay with HCT-116 colon, with HCT-15 colon, with IGROV1 ovarian, in the assay with K-562 leukemia and with KM12 colon was > 31.6 µM throughout. Further, the TGI in the assay with NCI-H23 lung was > 31.6 µM; in the assay with RPMI-8226 leukemia it was > 31.6 µM; in the assay with SF-268 CNS, > 31.6 µM; in the assay on SF-295 CNS, > 100 µM; with SF-539 CNS it was > 31.6 µM; in the assay on SK-OV-3 ovarian, > 31.6 µM. The TGI in the assay with TK-10 renal was > 31.6 µM.

With `c1ccc([P+](CCSCCSCC[P+](c2ccccc2)(c2ccccc2)c2ccccc2)(c2ccccc2)c2ccccc2)cc1`, the TGI with DU-145 prostate, in the assay on HCT-116 colon, with HCT-15 colon, in the assay with IGROV1 ovarian, in the assay on K-562 leukemia and in the assay on KM12 colon was > 100 µM each time. For the same compound, the TGI in the assay on MDA-MB-231 breast, with NCI-H23 lung, with RXF 393 renal, in the assay on SF-268 CNS, in the assay on SF-295 CNS and in the assay on SF-539 CNS was > 100 µM in each case. Besides, the TGI in the assay on SK-OV-3 ovarian, with SNB-19 CNS and with TK-10 renal was > 100 µM throughout.

`CCN(CC)c1cccc2c1/C(=N/O)CCCC2`: the TGI in the assay with CCRF-CEM leukemia, in the assay with HCT-116 colon, in the assay with HCT-15 colon, with K-562 leukemia, in the assay on KM12 colon and in the assay with NCI-H23 lung was > 100 µM throughout. Moreover, the TGI with RPMI-8226 leukemia, with RXF 393 renal, in the assay with SF-268 CNS, in the assay with SF-295 CNS, in the assay on SK-OV-3 ovarian and in the assay with SNB-19 CNS was > 100 µM each time. For the same compound, in the assay on TK-10 renal, the TGI was > 100 µM.

On to `COP(=O)(OC)C(=O)N1N(c2ccc([N+](=O)[O-])cc2)C(=O)C(C)NC1(NNc1ccc([N+](=O)[O-])cc1)P(=O)(OC)OC` (stereo not drawn), for which the TGI with CCRF-CEM leukemia, in the assay with HCT-116 colon, with HCT-15 colon, in the assay on IGROV1 ovarian, with K-562 leukemia and with KM12 colon was > 100 µM each time. Moreover, the TGI in the assay on NCI-H23 lung, with RPMI-8226 leukemia, in the assay with SF-268 CNS, in the assay on SF-539 CNS, with SNB-19 CNS and in the assay on TK-10 renal was > 100 µM each time.

In the case of `NNC(=S)N/N=C(\C(=O)Nc1cccc(O)c1)C1C(=O)NC(=S)NC1=O`, the TGI in the assay on CCRF-CEM leukemia, in the assay on HCT-116 colon, with HCT-15 colon, in the assay on IGROV1 ovarian, in the assay on K-562 leukemia and in the assay on KM12 colon was > 100 µM each time. Moreover, the TGI in the assay on MDA-MB-231 breast, in the assay with PC-3 prostate, with RPMI-8226 leukemia, in the assay on RXF 393 renal, with SF-268 CNS and in the assay with SF-295 CNS was > 100 µM throughout. For the same compound, the TGI with SF-539 CNS, with SK-OV-3 ovarian, in the assay on SNB-19 CNS and in the assay with TK-10 renal was > 100 µM throughout.

In the case of `Nc1nc2c3nc(Nc4ccccc4)sc3nc(=S)n2c2sc(Nc3ccccc3)nc12`, the TGI with HCT-116 colon, in the assay with HCT-15 colon, in the assay on IGROV1 ovarian, with K-562 leukemia, in the assay on NCI-H23 lung and in the assay on RXF 393 renal was > 100 µM each time. Also, the TGI in the assay on SF-268 CNS is 56.5 µM; with SF-295 CNS it was > 100 µM; in the assay with SF-539 CNS, > 100 µM; with SK-OV-3 ovarian, > 100 µM; in the assay on SNB-19 CNS it was > 100 µM.

For the compound `COc1ccc(N=NC(=O)NC(Cc2ccccc2)C(=O)O)cc1` (stereo not drawn), the TGI in the assay on CCRF-CEM leukemia, with DU-145 prostate, in the assay with HCT-116 colon, in the assay on HCT-15 colon, in the assay with IGROV1 ovarian and in the assay with K-562 leukemia was > 100 µM throughout. Also, the TGI in the assay with KM12 colon, in the assay on NCI-H23 lung, in the assay with PC-3 prostate, in the assay on RPMI-8226 leukemia, in the assay with RXF 393 renal and in the assay with SF-268 CNS was > 100 µM in each case. For the same compound, the TGI with SF-295 CNS, with SF-539 CNS, in the assay on SNB-19 CNS and in the assay with TK-10 renal was > 100 µM throughout.

For the compound `CCCNC(=S)/N=C/c1c(O)cc(C)oc1=O`, the TGI with DU-145 prostate, with HCT-116 colon, in the assay on HCT-15 colon, in the assay with IGROV1 ovarian, in the assay with KM12 colon and with MDA-MB-231 breast was > 100 µM each time. Further, the TGI in the assay with NCI-H23 lung, in the assay on PC-3 prostate, in the assay on SF-295 CNS, with SF-539 CNS, with SK-OV-3 ovarian and in the assay on SNB-19 CNS was > 100 µM each time. The TGI in the assay with TK-10 renal was > 100 µM.

(Values after PubChem BioAssay (NCI).)
